Measured values from US8076487B2, “Pyridone derivative and herbicide” (Kumiai Chemical Industry Co., Ltd., priority 2006, dated 2011).

Legend:
Format in all cases: in vivo
[1] = test system: slender amaranth (Amaranthus viridis L.); test: Test Example 2: herbicidal effect by soil application to upland field; details: soil surface spray, upland field soil, 1,000 g active ingredient per hectare, 21st day after application
Method in brief: (§1)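 Dose was 1,000 g active ingredient per hectare, applied as a wettable powder diluted in water and sprayed evenly over the soil of sown, covered pots at a 1,000 L/ha equivalent. Effect was judged by a standard scale 21 d later under greenhouse conditions.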

[2] = test system: green foxtail (Setaria viridis (L.) P. Beauv.); test: as above; details: soil surface spray, upland field soil, 1,000 g active ingredient per hectare, 21st day after application
Method in brief: as §1

[3] = test system: barnyardgrass (Echinochloa crus-galli (L.) P. Beauv. var. crus-galli); test: as above; details: soil surface spray, upland field soil, 1,000 g active ingredient per hectare, 21st day after application
Method in brief: as §1

[4] = test system: velvetleaf (Abutilon theophrasti medicus); test: as above; details: soil surface spray, upland field soil, 1,000 g active ingredient per hectare, 21st day after application
Method in brief: as §1

[5] = test system: slender amaranth (Amaranthus viridis L.); test: Test Example 3: herbicidal effect by application to upland field (foliage treatment); details: foliage treatment, 1,000 g active ingredient per 1 hectare, 14th day after application, greenhouse
Method in brief: (§2)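 Sow in field soil; grow 2 weeks in greenhouse; spray foliage from above with wettable-powder dilution (1,000 g AI/ha, 1,000 L/ha); return to greenhouse; score effect at day 14 against a standard.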

[6] = test system: green foxtail (Setaria viridis (L.) P. Beauv.); test: as above; details: foliage treatment, 1,000 g active ingredient per 1 hectare, 14th day after application, greenhouse
Method in brief: as §2

[7] = test system: barnyardgrass (Echinochloa crus-galli (L.) P. Beauv. var. crus-galli); test: as above; details: foliage treatment, 1,000 g active ingredient per 1 hectare, 14th day after application, greenhouse
Method in brief: as §2

[8] = test system: velvetleaf (Abutilon theophrasti medicus); test: as above; details: foliage treatment, 1,000 g active ingredient per 1 hectare, 14th day after application, greenhouse
Method in brief: as §2

[9] = test system: early watergrass (Echinochloa oryzicola Vasing); test: Test Example 1: herbicidal effect by soil application to paddy field; details: paddy field soil application; active ingredient 1,000 g per 1 hectare; wettable powder added dropwise to water surface the day after sowing; examined on the 21st day after application
Method in brief: (§3)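 Plants were sown in flooded (3 cm) paddy soil and evaluated for herbicidal effect 21 days after soil application in a greenhouse.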

[10] = test system: Japanese bulrush (Scirpus juncoides Roxb.); test: as above; details: paddy field soil application; active ingredient 1,000 g per 1 hectare; wettable powder added dropwise to water surface the day after sowing; examined on the 21st day after application
Method in brief: as §3

[11] = test system: heartshape false pickerelweed (Monochoria vaginalis (Burm.f.) C.Presl); test: as above; details: paddy field soil application; active ingredient 1,000 g per 1 hectare; wettable powder added dropwise to water surface the day after sowing; examined on the 21st day after application
Method in brief: as §3

SMILES | herbicidal effect (index), Slender Amaranth [1] | herbicidal effect (index), Green Foxtail [2] | herbicidal effect (index), Barnyardgrass [3] | herbicidal effect (index), Velvetleaf [4] | herbicidal effect, Slender Amaranth [5] | herbicidal effect, Green Foxtail [6] | herbicidal effect, Barnyardgrass [7] | herbicidal effect, Velvetleaf [8] | herbicidal effect, Echinochloa oryzicola Vasing [9] | herbicidal effect, Scirpus juncoides Roxb. [10] | herbicidal effect, Monochoria vaginalis (Burm. f.) C. Presl [11]
O=C1CCCC(O)=C1C(=O)c1ccc(C(F)(F)F)n(CC2CCOC2)c1=O (stereo not drawn) [I-154] | 5 (90% or more of herbicidal effect and crop phytotoxicity) | 3 (50 to less than 70% of herbicidal effect and crop phytotoxicity) | 4 (70 to less than 90% of herbicidal effect and crop phytotoxicity) | 5 (90% or more of herbicidal effect and crop phytotoxicity) | 5 (90% or more of herbicidal effect and crop phytotoxicity) | 5 (90% or more of herbicidal effect and crop phytotoxicity) | 4 (70 to less than 90% of herbicidal effect and crop phytotoxicity) | 5 (90% or more of herbicidal effect and crop phytotoxicity) | 5 (90% or more of herbicidal effect and crop phytotoxicity) | 5 (90% or more of herbicidal effect and crop phytotoxicity) | 5 (90% or more of herbicidal effect and crop phytotoxicity)
Nn1c(C(F)(F)F)ccc(C(=O)C2=C(O)CCCC2=O)c1=O [I-156] | 5 (90% or more of herbicidal effect and crop phytotoxicity) | 4 (70 to less than 90% of herbicidal effect and crop phytotoxicity) | 5 (90% or more of herbicidal effect and crop phytotoxicity) | 5 (90% or more of herbicidal effect and crop phytotoxicity) | 5 (90% or more of herbicidal effect and crop phytotoxicity) | 4 (70 to less than 90% of herbicidal effect and crop phytotoxicity) | 5 (90% or more of herbicidal effect and crop phytotoxicity) | 5 (90% or more of herbicidal effect and crop phytotoxicity) | 5 (90% or more of herbicidal effect and crop phytotoxicity) | 5 (90% or more of herbicidal effect and crop phytotoxicity) | 5 (90% or more of herbicidal effect and crop phytotoxicity)
CCNn1c(C(F)(F)F)ccc(C(=O)C2=C(O)CCCC2=O)c1=O [I-158] | 5 (90% or more of herbicidal effect and crop phytotoxicity) | 5 (90% or more of herbicidal effect and crop phytotoxicity) | 5 (90% or more of herbicidal effect and crop phytotoxicity) | 5 (90% or more of herbicidal effect and crop phytotoxicity) | 5 (90% or more of herbicidal effect and crop phytotoxicity) | 5 (90% or more of herbicidal effect and crop phytotoxicity) | 5 (90% or more of herbicidal effect and crop phytotoxicity) | 5 (90% or more of herbicidal effect and crop phytotoxicity) | 5 (90% or more of herbicidal effect and crop phytotoxicity) | 5 (90% or more of herbicidal effect and crop phytotoxicity) | 5 (90% or more of herbicidal effect and crop phytotoxicity)
